Assays:
Test in all cases: kinobeads assay with mass spectrometry detection of kinases (kinase selectivity profile)
Format in all cases: binding
kinases (kinome) [1] = biological target: T1, kinases (kinome) (Homo sapiens, UniProt P09769); conditions: FGR (TK), IPI00016871
T1 construct: determined in kinobeads assays with mass spectrometry detection of kinases as described previously; endogenous in cells; host or cells: cell lysate
Text: (§1) The protein kinase complement of the human genome (the kinome) was described previously (Manning et al., 2002. Science 298(5600):1912-1934). Sequence accession numbers are defined by the International Protein Index (IPI) (Kersey et al., 2004. Proteomics 4(7):1985-1988).

kinases (kinome) [2] = biological target: T2, kinases (kinome) (Homo sapiens, UniProt Q13163); conditions: MAP2K5 (STE), IPI00158248
T2 construct: determined in kinobeads assays with mass spectrometry detection of kinases as described previously; endogenous in cells; host or cells: cell lysate
T2 sequence (Q13163 1-448): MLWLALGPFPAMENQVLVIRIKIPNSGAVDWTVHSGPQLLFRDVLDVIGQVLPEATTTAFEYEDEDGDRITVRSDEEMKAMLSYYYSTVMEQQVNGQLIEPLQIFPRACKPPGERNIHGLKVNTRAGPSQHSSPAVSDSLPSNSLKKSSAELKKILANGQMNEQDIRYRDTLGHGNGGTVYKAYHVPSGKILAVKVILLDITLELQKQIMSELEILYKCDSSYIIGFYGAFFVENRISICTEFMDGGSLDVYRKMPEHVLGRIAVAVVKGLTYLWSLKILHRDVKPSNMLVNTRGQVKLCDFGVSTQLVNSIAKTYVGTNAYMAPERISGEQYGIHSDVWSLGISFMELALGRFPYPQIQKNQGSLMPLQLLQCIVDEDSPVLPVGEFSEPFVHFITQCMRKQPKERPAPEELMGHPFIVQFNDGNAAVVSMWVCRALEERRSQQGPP
Text: as §1

kinases (kinome) [3] = biological target: T3, kinases (kinome) (Homo sapiens, UniProt Q04771); conditions: ALK2 (TKL), IPI00029219
T3 construct: determined in kinobeads assays with mass spectrometry detection of kinases as described previously; endogenous in cells; host or cells: cell lysate
T3 sequence (Q04771 21-509): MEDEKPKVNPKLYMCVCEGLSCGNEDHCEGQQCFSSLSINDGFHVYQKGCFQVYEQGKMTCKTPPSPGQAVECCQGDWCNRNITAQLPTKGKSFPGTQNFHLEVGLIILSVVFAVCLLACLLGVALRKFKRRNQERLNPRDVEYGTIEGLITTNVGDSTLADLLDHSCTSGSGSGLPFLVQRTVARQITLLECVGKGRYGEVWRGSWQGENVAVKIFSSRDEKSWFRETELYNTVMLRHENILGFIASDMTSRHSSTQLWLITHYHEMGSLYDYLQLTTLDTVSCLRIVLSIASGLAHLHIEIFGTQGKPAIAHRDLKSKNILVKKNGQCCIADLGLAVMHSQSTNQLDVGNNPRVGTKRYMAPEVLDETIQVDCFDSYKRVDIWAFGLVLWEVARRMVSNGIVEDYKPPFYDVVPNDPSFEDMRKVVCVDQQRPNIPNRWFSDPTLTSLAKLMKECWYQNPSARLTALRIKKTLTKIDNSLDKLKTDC
Text: as §1

kinases (kinome) [4] = biological target: T4, kinases (kinome) (Homo sapiens, UniProt Q8NI60); conditions: ADCK3 (Atypical), IPI00176469
T4 construct: determined in kinobeads assays with mass spectrometry detection of kinases as described previously; endogenous in cells; host or cells: cell lysate
Text: as §1

kinases (kinome) [5] = biological target: T5, kinases (kinome) (Homo sapiens, UniProt P42338); conditions: PIK3Cb (Lipid Kinase), IPI00031388
T5 construct: determined in kinobeads assays with mass spectrometry detection of kinases as described previously; endogenous in cells; host or cells: cell lysate
Text: as §1

kinases (kinome) [6] = biological target: T6, kinases (kinome) (Homo sapiens, UniProt Q13555); conditions: CaMK2g (CAMK), IPI00908444
T6 construct: determined in kinobeads assays with mass spectrometry detection of kinases as described previously; endogenous in cells; host or cells: cell lysate
Text: as §1

kinases (kinome) [7] = biological target: T7, kinases (kinome) (Homo sapiens, UniProt P27361); conditions: Erk1 (CMGC), IPI00018195
T7 construct: determined in kinobeads assays with mass spectrometry detection of kinases as described previously; endogenous in cells; host or cells: cell lysate
Text: as §1

kinases (kinome) [8] = biological target: T8, kinases (kinome) (Homo sapiens, UniProt Q86YV5); conditions: SgK223 (Other), IPI00739386
T8 construct: determined in kinobeads assays with mass spectrometry detection of kinases as described previously; endogenous in cells; host or cells: cell lysate
T8 sequence (Q86YV5 1-1406): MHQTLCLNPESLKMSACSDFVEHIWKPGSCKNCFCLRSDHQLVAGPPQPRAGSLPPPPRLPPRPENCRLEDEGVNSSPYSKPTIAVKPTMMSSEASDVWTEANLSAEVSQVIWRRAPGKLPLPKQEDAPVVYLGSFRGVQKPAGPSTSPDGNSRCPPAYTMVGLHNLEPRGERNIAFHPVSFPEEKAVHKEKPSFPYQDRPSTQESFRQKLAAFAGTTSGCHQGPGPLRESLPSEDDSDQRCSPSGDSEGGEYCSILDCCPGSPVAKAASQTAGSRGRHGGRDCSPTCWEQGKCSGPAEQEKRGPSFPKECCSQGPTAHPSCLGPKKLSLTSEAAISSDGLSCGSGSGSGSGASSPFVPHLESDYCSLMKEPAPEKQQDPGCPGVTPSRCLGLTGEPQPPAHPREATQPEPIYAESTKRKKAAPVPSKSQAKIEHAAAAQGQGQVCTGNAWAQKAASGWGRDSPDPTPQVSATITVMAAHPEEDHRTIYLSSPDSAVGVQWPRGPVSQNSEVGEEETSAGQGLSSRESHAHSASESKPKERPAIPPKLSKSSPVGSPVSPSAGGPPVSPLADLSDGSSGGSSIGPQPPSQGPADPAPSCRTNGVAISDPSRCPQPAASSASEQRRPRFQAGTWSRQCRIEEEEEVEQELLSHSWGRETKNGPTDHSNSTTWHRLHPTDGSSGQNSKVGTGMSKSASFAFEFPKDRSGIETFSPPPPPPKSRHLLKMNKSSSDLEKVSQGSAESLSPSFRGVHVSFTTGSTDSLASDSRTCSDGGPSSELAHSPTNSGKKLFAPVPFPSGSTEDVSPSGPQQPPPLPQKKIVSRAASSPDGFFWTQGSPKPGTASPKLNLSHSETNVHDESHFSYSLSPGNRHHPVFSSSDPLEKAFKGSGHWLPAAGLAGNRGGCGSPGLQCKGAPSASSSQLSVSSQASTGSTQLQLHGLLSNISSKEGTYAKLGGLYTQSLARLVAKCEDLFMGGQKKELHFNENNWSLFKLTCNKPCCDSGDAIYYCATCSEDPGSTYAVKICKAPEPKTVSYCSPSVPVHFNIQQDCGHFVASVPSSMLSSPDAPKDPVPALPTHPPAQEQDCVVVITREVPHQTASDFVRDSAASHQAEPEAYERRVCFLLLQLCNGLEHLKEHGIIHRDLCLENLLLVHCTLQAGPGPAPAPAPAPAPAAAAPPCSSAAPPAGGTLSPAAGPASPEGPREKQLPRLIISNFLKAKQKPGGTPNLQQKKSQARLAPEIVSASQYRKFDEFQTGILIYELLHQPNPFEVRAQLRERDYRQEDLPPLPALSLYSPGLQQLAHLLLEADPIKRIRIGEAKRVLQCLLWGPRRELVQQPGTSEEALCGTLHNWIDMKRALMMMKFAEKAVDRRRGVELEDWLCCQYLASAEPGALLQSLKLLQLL
Text: as §1

Measured: IC50

T5 sequence (P42338 whole entry): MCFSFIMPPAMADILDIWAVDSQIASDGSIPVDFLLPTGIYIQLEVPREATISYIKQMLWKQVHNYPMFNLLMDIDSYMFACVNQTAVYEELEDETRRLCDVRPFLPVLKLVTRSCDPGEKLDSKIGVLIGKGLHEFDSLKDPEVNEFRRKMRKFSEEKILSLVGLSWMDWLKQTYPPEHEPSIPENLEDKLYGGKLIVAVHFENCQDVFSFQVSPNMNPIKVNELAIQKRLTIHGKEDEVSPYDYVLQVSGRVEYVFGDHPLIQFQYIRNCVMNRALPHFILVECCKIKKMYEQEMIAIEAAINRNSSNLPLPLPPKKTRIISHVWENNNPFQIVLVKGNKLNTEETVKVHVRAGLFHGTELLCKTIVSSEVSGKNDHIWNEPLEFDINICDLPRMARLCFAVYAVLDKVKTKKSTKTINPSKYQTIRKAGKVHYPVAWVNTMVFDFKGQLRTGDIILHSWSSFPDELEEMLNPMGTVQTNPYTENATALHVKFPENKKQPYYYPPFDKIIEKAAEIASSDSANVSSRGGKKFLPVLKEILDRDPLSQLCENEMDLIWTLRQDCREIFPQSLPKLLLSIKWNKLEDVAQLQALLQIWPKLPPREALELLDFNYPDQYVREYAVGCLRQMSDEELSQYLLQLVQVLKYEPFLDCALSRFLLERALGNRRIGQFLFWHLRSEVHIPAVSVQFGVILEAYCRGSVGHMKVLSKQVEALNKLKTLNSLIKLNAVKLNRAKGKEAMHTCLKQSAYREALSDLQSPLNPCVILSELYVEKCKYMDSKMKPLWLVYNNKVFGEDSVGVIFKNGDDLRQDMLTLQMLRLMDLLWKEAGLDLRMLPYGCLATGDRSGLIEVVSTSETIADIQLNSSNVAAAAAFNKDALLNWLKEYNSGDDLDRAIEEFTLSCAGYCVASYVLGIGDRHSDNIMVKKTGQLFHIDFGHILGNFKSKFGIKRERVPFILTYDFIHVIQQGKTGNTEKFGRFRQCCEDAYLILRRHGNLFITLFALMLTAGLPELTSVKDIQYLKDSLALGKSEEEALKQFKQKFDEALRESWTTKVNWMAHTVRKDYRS
T4 sequence (Q8NI60 163-647): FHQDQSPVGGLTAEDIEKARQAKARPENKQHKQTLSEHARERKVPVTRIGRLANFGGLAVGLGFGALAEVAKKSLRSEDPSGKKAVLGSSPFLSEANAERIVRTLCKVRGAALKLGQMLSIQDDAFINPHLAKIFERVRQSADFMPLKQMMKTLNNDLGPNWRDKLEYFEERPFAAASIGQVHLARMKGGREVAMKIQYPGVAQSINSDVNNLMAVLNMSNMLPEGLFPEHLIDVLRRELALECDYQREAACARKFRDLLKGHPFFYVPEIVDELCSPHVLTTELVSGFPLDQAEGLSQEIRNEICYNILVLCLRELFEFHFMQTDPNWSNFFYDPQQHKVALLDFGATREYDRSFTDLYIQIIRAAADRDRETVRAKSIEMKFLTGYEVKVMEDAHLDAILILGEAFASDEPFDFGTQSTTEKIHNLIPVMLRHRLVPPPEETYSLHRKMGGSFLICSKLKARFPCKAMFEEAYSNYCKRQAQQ
T6 sequence (Q13555 whole entry): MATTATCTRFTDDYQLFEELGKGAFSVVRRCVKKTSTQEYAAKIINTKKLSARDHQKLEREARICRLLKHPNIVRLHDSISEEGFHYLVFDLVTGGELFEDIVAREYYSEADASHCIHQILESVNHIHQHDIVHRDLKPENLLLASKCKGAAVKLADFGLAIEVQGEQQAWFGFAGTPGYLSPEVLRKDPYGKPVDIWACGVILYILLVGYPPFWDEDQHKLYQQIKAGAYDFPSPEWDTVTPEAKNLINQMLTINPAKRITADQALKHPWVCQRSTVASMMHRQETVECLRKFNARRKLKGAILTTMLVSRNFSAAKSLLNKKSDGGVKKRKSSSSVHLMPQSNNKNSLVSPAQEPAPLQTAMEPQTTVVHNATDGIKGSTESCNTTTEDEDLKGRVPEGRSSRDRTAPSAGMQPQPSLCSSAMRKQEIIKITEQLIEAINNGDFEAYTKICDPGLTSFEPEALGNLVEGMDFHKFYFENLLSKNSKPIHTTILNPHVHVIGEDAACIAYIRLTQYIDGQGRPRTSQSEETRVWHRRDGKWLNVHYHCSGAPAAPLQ
T1 sequence (P09769 whole entry): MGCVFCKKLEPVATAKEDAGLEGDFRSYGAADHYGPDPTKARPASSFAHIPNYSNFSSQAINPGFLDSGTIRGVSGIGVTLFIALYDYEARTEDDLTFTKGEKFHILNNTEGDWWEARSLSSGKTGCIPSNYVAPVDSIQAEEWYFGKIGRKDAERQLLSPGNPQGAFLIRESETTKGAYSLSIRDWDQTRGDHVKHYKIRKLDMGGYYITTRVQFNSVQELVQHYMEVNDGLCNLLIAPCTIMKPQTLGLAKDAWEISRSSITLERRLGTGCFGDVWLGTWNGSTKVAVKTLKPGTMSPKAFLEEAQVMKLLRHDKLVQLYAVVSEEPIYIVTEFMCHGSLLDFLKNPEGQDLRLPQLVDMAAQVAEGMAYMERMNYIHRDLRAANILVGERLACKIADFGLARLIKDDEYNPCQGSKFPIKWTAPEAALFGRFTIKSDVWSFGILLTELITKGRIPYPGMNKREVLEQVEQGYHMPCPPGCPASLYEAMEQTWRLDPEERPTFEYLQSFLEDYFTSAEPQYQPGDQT
T7 sequence (P27361 whole entry): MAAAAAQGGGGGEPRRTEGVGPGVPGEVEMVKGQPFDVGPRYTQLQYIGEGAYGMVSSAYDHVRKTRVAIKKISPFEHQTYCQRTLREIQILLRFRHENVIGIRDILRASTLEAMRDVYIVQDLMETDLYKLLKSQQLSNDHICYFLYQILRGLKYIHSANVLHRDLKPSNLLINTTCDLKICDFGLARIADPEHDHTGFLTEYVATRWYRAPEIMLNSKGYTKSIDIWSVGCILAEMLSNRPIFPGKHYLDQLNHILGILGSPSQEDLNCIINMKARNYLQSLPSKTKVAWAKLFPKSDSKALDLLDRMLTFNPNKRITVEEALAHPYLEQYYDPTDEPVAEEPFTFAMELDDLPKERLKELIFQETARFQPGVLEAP

C[C@H]1COCCN1c1nc(-c2ccc(NC(=O)NC3CC3)cc2)cc(-c2ccccc2S(C)(=O)=O)n1 [Example 4, (S)-1-cyclopropyl-3-(4-(2-(3-methylmorpholino)-6-(2-(methylsulfonyl)phenyl)pyrimidin-4-yl)phenyl)urea]
not listed: kinases (kinome) [8]
> 10 µM: all other assays above

C[C@H]1COCCN1c1cc(-c2ccccc2S(C)(=O)=O)nc(-c2ccc(NC(=O)NC3CC3)cc2)n1 [Example 6, (S)-1-cyclopropyl-3-(4-(4-(3-methylmorpholino)-6-(2-(methylsulfonyl)phenyl)pyrimidin-2-yl)phenyl)urea]
> 10 µM: all assays above

CCNC(=O)Nc1ccc(-c2cc(-c3ccccc3C#N)nc(N3CCOC[C@@H]3C)n2)cc1 [Example 8, (S)-1-(4-(6-(2-cyanophenyl)-2-(3-methylmorpholino)pyrimidin-4-yl)phenyl)-3-ethylurea]
> 10 µM: all assays above

C[C@H]1COCCN1c1nc(-c2ccc(NC(=O)NC3CC3)cc2)cc(-c2cc(F)ccc2S(C)(=O)=O)n1 [Example 40, (S)-1-cyclopropyl-3-(4-(6-(5-fluoro-2-(methylsulfonyl)phenyl)-2-(3-methylmorpholino)pyrimidin-4-yl)phenyl)urea]
> 10 µM: all assays above

C[C@H]1COCCN1c1cc(-c2ccccn2)nc(-c2ccc(NC(=O)NCCO)cc2)n1 [Example 43, (S)-1-(2-hydroxyethyl)-3-(4-(4-(3-methylmorpholino)-6-(pyridin-2-yl)pyrimidin-2-yl)phenyl)urea]
> 10 µM: all assays above

C[C@H]1COCCN1c1nc(-c2ccc(NC(=O)NC3CC3)cc2)cc(-c2cccnc2S(C)(=O)=O)n1 [Example 46, (S)-1-cyclopropyl-3-(4-(2-(3-methylmorpholino)-6-(2-(methylsulfonyl)pyridin-3-yl)pyrimidin-4-yl)phenyl)urea]
> 10 µM: all assays above

C[C@H]1COCCN1c1nc(-c2ccc(NC(=O)N[C@H]3CCC[C@@H]3O)cc2)cc(-c2cc(F)ccc2S(C)(=O)=O)n1 [Example 76, 1-(4-(6-(5-fluoro-2-(methylsulfonyl)phenyl)-2-((S)-3-methylmorpholino)pyrimidin-4-yl)phenyl)-3-((1S,2S)-2-hydroxycyclopentyl)urea]
> 10 µM: all assays above

From patent US9249129B2, “Morpholino substituted urea derivatives as mTOR inhibitors” (CELLZOME LIMITED, priority 2010, dated 2016)
